Data from patent US10828378B2, “Nucleic acid construct for expression of oxidative stress indicator and use thereof” (Riken, priority 2011, dated 2020).
Where a name gives a salt, the structure may show the parent alone.

Experiments:
[1] = tested on: OKD48-Luc reporter (Keap1-Nrf2 pathway); experiment: Dual luciferase assay using the OKD48-Luc reporter in HeLa cells; type: cell-based, human; details: for response of HeLa cells containing OKD48-Luc (luciferase assay): 8 h or 16 h, 10 μM ASN, 100 μM DEM, 2.5 μg/ml tunicamycin, 1 μM thapsigargin, 1 mM DTT, 100 μM etoposide, 100 μg/ml TTFA, FIG. 5A
Procedure: HeLa cells or HEK293T cells were cultured in a DMEM medium supplemented with 100 U/ml penicillin, 100 μg/ml streptomycin, and 10% fetal bovine serum at 37° C. in an atmosphere containing 5% CO2. The plasmid DNAs were inserted into the cells of each line using the calcium phosphate-DNA precipitation method. In order to test cellular response to agents, the cells were treated with 10 μM sodium arsenite (ASN), 100 μM diethyl maleate (DEM), 200 μM H2O2, 2.5 μg/ml tunicamycin, 1 μM thapsigargin, 1 mM DTT, 100 μM etoposide, or 100 μg/ml thenoyltrifluoroacetone (TTFA) over varying times.
In dual luciferase assay using the OKD48-Luc reporter, phRL-TK (Promega Corp.) was used as an internal control. The HeLa cells were seeded on a 24-well plate and then transfected with the plasmid DNAs. At 24 hours after the transfection, the cells were lysed for luciferase assay. Each reporter activity was measured using a luciferase assay system (Promega Corp.) and a luminometer (Berthold Japan Co., Ltd.). The results were shown as mean±SEM of three experiments. Each value was indicated in terms of fold induction. This fold induction was normalized for that of an untreated sample (NT) (FIG. 5A), an untreated sample (NT) free from Nrf2 overexpression (FIG. 5D), or an untreated sample (NT) free from Keap1 overexpression (FIG. 5E). In this calculation, the fold induction of each NT was defined as 1.0.

[2] = tested on: OKD48-Luc; experiment: Western blot of OKD48-Luc protein with anti-Luc antibody in HEK293T cells; type: cell-based, human; details: 8 h treatment, FIG. 5B
Procedure: (§1) HeLa cells were transfected with the OKD48 construct. Luciferase assay was conducted after treatment for 8 hours or 16 hours in the presence or absence of different stressors (sodium arsenite (ASN), diethyl maleate (DEM), H2O2, tunicamycin (Tun), thapsigargin (Tg), dithiothreitol (DTT), etoposide (Etp), and thenoyltrifluoroacetone (TTFA)). […] HEK293T cells were transfected with the OKD48 construct and treated for 8 hours in the presence or absence of different stressors. The cell lysates were analyzed by Western blotting using an anti-Luc antibody or an anti-GAPDH antibody. […] HeLa cells were treated for 8 hours or 16 hours in the presence or absence of different stressors. Then, the cell lysates were analyzed by Western blotting using an anti-Luc antibody or an anti-GAPDH antibody. […]
(§2) The cells were lysed in an SDS sample buffer (50 mM Tris-HCl (pH 6.8), 2% SDS, 50 mM DTT, 10% glycerol, and 1 μg/ml bromophenol blue). […] After the electrophoresis, the proteins were electrically transferred to a polyvinylidene fluoride porous membrane and immunologically detected by a standard approach using a monoclonal antibody against luciferase (Promega Corp.), a monoclonal antibody against GFP (Nacalai Tesque, Inc.), a monoclonal antibody against GAPDH (Cell Signaling Technology, Inc.), or a polyclonal antibody against Nrf2 (Santa Cruz Biotechnology, Inc.).

[3] = tested on: endogenous Nrf2; experiment: Western blot of endogenous Nrf2 in HeLa cells; type: cell-based, human; details: 8 h or 16 h treatment, FIG. 5C
Procedure: as §1, §2

[4] = tested on: OKD48-Venus reporter; experiment: Fluorescence imaging of OKD48-Venus reporter in HEK293T cells; type: cell-based, human; details: 8 h treatment, FIG. 7A
Procedure: HEK293T cells were transfected with the OKD48-Venus construct and then treated for 8 hours in the presence or absence of sodium arsenite (ASN) or diethyl maleate. Their fluorescence images were obtained together with phase-contrast images. […] HEK293T cells were transfected with the OKD48-Venus construct and then treated for 8 hours in the presence or absence of sodium arsenite (ASN), diethyl maleate (DEM), H2O2, tunicamycin (Tun), thapsigargin (Tg), dithiothreitol (DTT), etoposide (Etp), or thenoyltrifluoroacetone (TTFA). Fluorescence from their cell lysates was measured and normalized for luciferase in the cotransfected cells. In the diagram, n.d. represents not detected. […] Their cell lysates were analyzed by Western blotting using an anti-GFP antibody or an anti-GAPDH antibody. […]
In order to take images of the cells, the HEK293T cells were seeded over a 6-well plate and then transfected with the plasmid DNAs. At 24 hours after the transfection, fluorescence images were obtained using FSX100 (Olympus Corp.). In order to measure the fluorescence of cell lysates, the cells were lysed in a digitonin buffer (50 mM Tris-HCl (pH 7.5), 1 mM EDTA, 10 mM EGTA, and 10 μM digitonin) at 37° C. for 30 minutes. […] The fluorescence intensity of each sample was normalized against the activity of luciferase derived from the cotransfected cells. […]

[5] = tested on: OKD48-transgenic mouse; experiment: In vivo luminescence imaging of OKD48-transgenic mouse; details: 12.5 mg/kg intraperitoneal, 6 hours later
Procedure: The 4.5-kb Spel-SfiI fragment of p(3×ARE)TKbasal-hNrf2(1-433)-GL4-Flag was microinjected as a transgene into the fertilized eggs of a C57BL/6 mouse. […] The obtained mouse was used for in vivo imaging assay. After intraperitoneal injection of D-luciferin (4.5 mg), the mouse was analyzed according to a standard protocol using an in vivo imaging system IVIS (Xenogen Corp.). The experimental protocol involving the animal was approved by the animal research committee of RIKEN (Japan).
In order to monitor oxidative stress in vivo, an OKD48-transgenic mouse having a 3×ARE-driven Nrf2(1-433)-Luc expression gene was prepared. In order to confirm that cells placed under oxidative stress were able to be effectively used in vivo, ASN inducing oxidative stress in various tissues or organs was intraperitoneally injected (12.5 mg/kg) to a transgenic mouse.

## O[C@H](CS)[C@H](O)CS (racemic) [dithiothreitol]
[1]
  response of HeLa cells containing OKD48-Luc (luciferase assay): rarely activated

## O=[As]O [ASN, sodium arsenite]
[1]; HeLa cells with Nrf2 overexpression, 8 h treatment, FIG. 5D
  activity of OKD48-Luc under Nrf2 overexpression, effect of stressor treatment: slightly increased
[1]
  response of HeLa cells containing OKD48-Luc (luciferase assay): specifically responded
[2]
  OKD48-Luc at the protein level (Western blot, anti-Luc antibody): rise
[3]
  induction of endogenous Nrf2 (Western blot): significantly induced
[4]
  fluorescence of OKD48-Venus under microscopic observation: emitted fluorescence
[5]; abdominal section, FIG. 8
  luminescence in the liver: strong luminescence
[5]; data not shown
  luminescence in other tissues or organs (e.g., stomach and kidney): detected to some extent

## CCOC(=O)/C=C\C(=O)OCC [DEM, diethyl maleate]
[1]
  response of HeLa cells containing OKD48-Luc (luciferase assay): specifically responded
[2]
  OKD48-Luc at the protein level (Western blot, anti-Luc antibody): rise
[3]
  induction of endogenous Nrf2 (Western blot): significantly induced
[4]
  fluorescence of OKD48-Venus under microscopic observation: emitted fluorescence

## COc1cc([C@@H]2c3cc4c(cc3[C@@H](O[C@@H]3O[C@@H]5CO[C@@H](C)O[C@H]5[C@H](O)[C@H]3O)[C@H]3COC(=O)[C@H]23)OCO4)cc(OC)c1O [etoposide]
[1]
  response of HeLa cells containing OKD48-Luc (luciferase assay): rarely activated

## C/C=C(/C)C(=O)O[C@H]1C(C)=C2[C@H]([C@@H]1OC(=O)CCCCCCC)[C@@](C)(OC(C)=O)C[C@H](OC(=O)CCC)[C@@]1(O)[C@H]2OC(=O)[C@@]1(C)O [thapsigargin]
[1]
  response of HeLa cells containing OKD48-Luc (luciferase assay): rarely activated

## O=C(CC(=O)C(F)(F)F)c1cccs1 [thenoyltrifluoroacetone]
[1]
  response of HeLa cells containing OKD48-Luc (luciferase assay): rarely activated

## tunicamycin
[1]
  response of HeLa cells containing OKD48-Luc (luciferase assay): rarely activated
